Measurements published in PubChem BioAssay (NCI).
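Here, GI50 denotes the concentration required for 50% inhibition of growth. TGI: total growth inhibition.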

Assays:
Assay in all cases: DTP human tumour cell line panel, 384-well format
OVCAR-4 ovarian = system: OVCAR-4 ovarian
NCI-H322M lung = system: NCI-H322M lung
K-562 leukemia = system: K-562 leukemia
LOX IMVI melanoma = system: LOX IMVI melanoma
KM12 colon = system: KM12 colon
SR leukemia = system: SR leukemia
786-0 renal = system: 786-0 renal
UACC-257 melanoma = system: UACC-257 melanoma
DU-145 prostate = system: DU-145 prostate
SF-268 CNS = system: SF-268 CNS
BT-549 breast = system: BT-549 breast
HS 578T breast = system: HS 578T breast
MCF7 breast = system: MCF7 breast
UACC-62 melanoma = system: UACC-62 melanoma
SW-620 colon = system: SW-620 colon
MDA-MB-231 breast = system: MDA-MB-231 breast
HCC-2998 colon = system: HCC-2998 colon
HOP-92 NSCLC = system: HOP-92 NSCLC
OVCAR-8 ovarian = system: OVCAR-8 ovarian
HOP-62 NSCLC = system: HOP-62 NSCLC
NCI-H23 lung = system: NCI-H23 lung
MOLT-4 leukemia = system: MOLT-4 leukemia
IGROV1 ovarian = system: IGROV1 ovarian
HL-60(TB) leukemia = system: HL-60(TB) leukemia
SK-OV-3 ovarian = system: SK-OV-3 ovarian
MDA-MB-468 breast = system: MDA-MB-468 breast
TK-10 renal = system: TK-10 renal
RPMI-8226 leukemia = system: RPMI-8226 leukemia
SNB-19 CNS = system: SNB-19 CNS
NCI-H226 lung = system: NCI-H226 lung
MDA-MB-435 melanoma = system: MDA-MB-435 melanoma
OVCAR-3 ovarian = system: OVCAR-3 ovarian
CCRF-CEM leukemia = system: CCRF-CEM leukemia
M14 melanoma = system: M14 melanoma
MALME-3M melanoma = system: MALME-3M melanoma
NCI-H460 NSCLC = system: NCI-H460 NSCLC
HT29 colon = system: HT29 colon
ACHN renal = system: ACHN renal
NCI/ADR-RES ovarian = system: NCI/ADR-RES ovarian
COLO 205 colon = system: COLO 205 colon
SF-295 CNS = system: SF-295 CNS
T-47D breast = system: T-47D breast
PC-3 prostate = system: PC-3 prostate
A549 NSCLC = system: A549 NSCLC
A498 renal = system: A498 renal
SN12C renal = system: SN12C renal
SF-539 CNS = system: SF-539 CNS
EKVX NSCLC = system: EKVX NSCLC
SNB-75 CNS = system: SNB-75 CNS
CAKI-1 renal = system: CAKI-1 renal
HCT-15 colon = system: HCT-15 colon
SK-MEL-5 melanoma = system: SK-MEL-5 melanoma
NCI-H522 lung = system: NCI-H522 lung
OVCAR-5 ovarian = system: OVCAR-5 ovarian
UO-31 renal = system: UO-31 renal
RXF 393 renal = system: RXF 393 renal
SK-MEL-28 melanoma = system: SK-MEL-28 melanoma

C[C@@H]1COCCN1c1nc(-c2cnc(N)cc2C(F)F)nc(N2[C@H](C)COC[C@@H]2C)n1
GI50 (OVCAR-4 ovarian): 68.3 nM | TGI (OVCAR-4 ovarian): 376 nM | GI50 (NCI-H322M lung): 95.7 nM | TGI (NCI-H322M lung): 2970 nM | GI50 (K-562 leukemia): 211 nM | TGI (K-562 leukemia): 1780 nM | GI50 (LOX IMVI melanoma): 99 nM | TGI (LOX IMVI melanoma): 1100 nM | GI50 (KM12 colon): 144 nM | TGI (KM12 colon): 3090 nM | GI50 (SR leukemia): 32.1 nM | TGI (SR leukemia): 131 nM | GI50 ([…]-0 renal): 116 nM | TGI (786-0 renal): 2780 nM | GI50 (UACC-257 melanoma): 316 nM | TGI (UACC-257 melanoma): 1560 nM | GI50 (DU-145 prostate): 143 nM | TGI (DU-145 prostate): 10400 nM | GI50 (SF-268 CNS): 228 nM | TGI (SF-268 CNS): 7710 nM | GI50 (BT-549 breast): 97.7 nM | TGI (BT-549 breast): 1140 nM | GI50 (HS 578T breast): 40.5 nM | TGI (HS 578T breast): 269 nM | GI50 (MCF7 breast): 36.6 nM | TGI (MCF7 breast): 1360 nM | GI50 (UACC-62 melanoma): 114 nM | TGI (UACC-62 melanoma): 899 nM | GI50 (SW-620 colon): 319 nM | TGI (SW-620 colon): 11500 nM | GI50 (MDA-MB-231 breast): 61.4 nM | TGI (MDA-MB-231 breast): 14400 nM | GI50 (HCC-2998 colon): 104 nM | TGI (HCC-2998 colon): 1610 nM | GI50 (HOP-92 NSCLC): 84.9 nM | TGI (HOP-92 NSCLC): 1570 nM | GI50 (OVCAR-8 ovarian): 165 nM | TGI (OVCAR-8 ovarian): 11600 nM | GI50 (HOP-62 NSCLC): 145 nM | TGI (HOP-62 NSCLC): 4220 nM | GI50 (NCI-H23 lung): 264 nM | TGI (NCI-H23 lung): 2600 nM | GI50 (MOLT-4 leukemia): 90.3 nM | TGI (MOLT-4 leukemia): 508 nM | GI50 (IGROV1 ovarian): 36 nM | TGI (IGROV1 ovarian): 238 nM | GI50 (HL-60(TB) leukemia): 466 nM | TGI (HL-60(TB) leukemia): 1660 nM | GI50 (SK-OV-3 ovarian): 53.3 nM | TGI (SK-OV-3 ovarian): 595 nM | GI50 (MDA-MB-468 breast): 54 nM | TGI (MDA-MB-468 breast): 236 nM | GI50 (TK-10 renal): 232 nM | TGI (TK-10 renal): 4550 nM | GI50 (RPMI-8226 leukemia): 16.6 nM | TGI (RPMI-8226 leukemia): 48.5 nM | GI50 (SNB-19 CNS): 711 nM | TGI (SNB-19 CNS): 16100 nM | GI50 (NCI-H226 lung): 75.9 nM | TGI (NCI-H226 lung): 656 nM | GI50 (MDA-MB-435 melanoma): 208 nM | TGI (MDA-MB-435 melanoma): 2570 nM | GI50 (OVCAR-3 ovarian): 119 nM | TGI (OVCAR-3 ovarian): 10400 nM | GI50 (CCRF-CEM leukemia): 106 nM | TGI (CCRF-CEM leukemia): 1050 nM | GI50 (M14 melanoma): 117 nM | TGI (M14 melanoma): 1490 nM | GI50 (MALME-3M melanoma): 27.1 nM | TGI (MALME-3M melanoma): 218 nM | GI50 (NCI-H460 NSCLC): 38.2 nM | TGI (NCI-H460 NSCLC): 1510 nM | GI50 (HT29 colon): 281 nM | TGI (HT29 colon): 2440 nM | GI50 (ACHN renal): 81.2 nM | TGI (ACHN renal): 2550 nM | GI50 (NCI/ADR-RES ovarian): 291 nM | TGI (NCI/ADR-RES ovarian): 6440 nM | GI50 (COLO 205 colon): 152 nM | TGI (COLO 205 colon): 3480 nM | GI50 (SF-295 CNS): 41.4 nM | TGI (SF-295 CNS): 369 nM | GI50 (T-47D breast): 18.7 nM | TGI (T-47D breast): 156 nM | GI50 (PC-3 prostate): 84.5 nM | TGI (PC-3 prostate): 1960 nM | GI50 (A549 NSCLC): 52.9 nM | TGI (A549 NSCLC): 3890 nM | GI50 (A498 renal): 23.1 nM | TGI (A498 renal): 407 nM | GI50 (SN12C renal): 95.9 nM | TGI (SN12C renal): 10900 nM | GI50 (SF-539 CNS): 116 nM | TGI (SF-539 CNS): 2450 nM | GI50 (EKVX NSCLC): 122 nM | TGI (EKVX NSCLC): 1080 nM | GI50 (SNB-75 CNS): 54.9 nM | TGI (SNB-75 CNS): 2100 nM | GI50 (CAKI-1 renal): 123 nM | TGI (CAKI-1 renal): 4840 nM | GI50 (HCT-15 colon): 59 nM | TGI (HCT-15 colon): 1330 nM | GI50 (SK-MEL-5 melanoma): 53.8 nM | TGI (SK-MEL-5 melanoma): 312 nM | GI50 (NCI-H522 lung): 128 nM | TGI (NCI-H522 lung): 1400 nM | GI50 (OVCAR-5 ovarian): 141 nM | TGI (OVCAR-5 ovarian): 2280 nM | GI50 (UO-31 renal): 290 nM | TGI (UO-31 renal): 16300 nM | GI50 (RXF 393 renal): 73.2 nM | TGI (RXF 393 renal): 4440 nM | GI50 (SK-MEL-28 melanoma): 121 nM | TGI (SK-MEL-28 melanoma): 1170 nM
